Experimental data as given in patent publication US20080299170A1, “Medical Devices and Coatings Therefor” (Aston University, priority 2005, published 2008).
Where two headings read alike, the source gives them in different places.

How the values were obtained:
[1] = biological target: T1, bovine epidermal transglutaminase (Bos taurus, UniProt A6QP57); details: Castelhano et al., Bioorg. Chem. (1988) 16, 335-340; cited from earlier work
T1 sequence (A6QP57 1-691): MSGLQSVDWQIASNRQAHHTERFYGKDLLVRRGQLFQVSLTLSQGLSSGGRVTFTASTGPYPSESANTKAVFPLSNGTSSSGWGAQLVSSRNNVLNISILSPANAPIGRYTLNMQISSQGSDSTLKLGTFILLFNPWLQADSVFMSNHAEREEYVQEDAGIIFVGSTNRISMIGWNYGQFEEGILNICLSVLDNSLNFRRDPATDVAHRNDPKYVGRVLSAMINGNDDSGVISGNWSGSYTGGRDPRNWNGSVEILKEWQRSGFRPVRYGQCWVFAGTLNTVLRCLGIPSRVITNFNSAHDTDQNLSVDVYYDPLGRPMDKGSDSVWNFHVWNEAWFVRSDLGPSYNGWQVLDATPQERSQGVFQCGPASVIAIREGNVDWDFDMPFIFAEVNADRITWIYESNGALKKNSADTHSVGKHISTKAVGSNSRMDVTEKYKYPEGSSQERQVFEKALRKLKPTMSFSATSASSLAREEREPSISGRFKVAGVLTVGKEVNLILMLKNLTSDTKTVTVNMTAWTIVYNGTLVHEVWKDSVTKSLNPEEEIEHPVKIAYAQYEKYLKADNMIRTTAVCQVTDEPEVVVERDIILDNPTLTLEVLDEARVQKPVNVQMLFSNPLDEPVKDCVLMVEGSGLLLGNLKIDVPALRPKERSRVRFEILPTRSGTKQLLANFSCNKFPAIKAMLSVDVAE

[2] = biological target: T2, factor XIIIa (Homo sapiens, UniProt P00488); details: Proof of Principle Studies, ref [10]; cited from earlier work
T2 sequence (P00488 39-732 limits assumed): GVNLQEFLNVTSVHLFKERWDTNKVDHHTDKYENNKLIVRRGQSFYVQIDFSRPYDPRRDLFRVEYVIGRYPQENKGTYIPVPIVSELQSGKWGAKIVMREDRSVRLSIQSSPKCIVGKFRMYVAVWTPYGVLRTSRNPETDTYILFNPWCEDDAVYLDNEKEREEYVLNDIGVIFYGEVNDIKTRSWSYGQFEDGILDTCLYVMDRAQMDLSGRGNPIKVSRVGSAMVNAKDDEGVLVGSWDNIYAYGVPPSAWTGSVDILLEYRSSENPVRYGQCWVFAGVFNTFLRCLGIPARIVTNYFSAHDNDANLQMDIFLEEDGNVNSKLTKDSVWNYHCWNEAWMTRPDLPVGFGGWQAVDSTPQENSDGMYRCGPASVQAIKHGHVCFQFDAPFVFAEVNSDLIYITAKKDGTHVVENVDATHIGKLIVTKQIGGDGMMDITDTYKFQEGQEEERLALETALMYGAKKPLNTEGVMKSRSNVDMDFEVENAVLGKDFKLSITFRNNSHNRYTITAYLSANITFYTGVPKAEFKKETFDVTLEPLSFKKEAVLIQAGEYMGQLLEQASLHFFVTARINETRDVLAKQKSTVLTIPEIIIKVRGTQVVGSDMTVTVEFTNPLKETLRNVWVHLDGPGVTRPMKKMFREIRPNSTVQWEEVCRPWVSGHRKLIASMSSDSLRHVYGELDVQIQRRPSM

[3] = biological target: T2, factor XIIIa; experiment: factor XIIIa inhibition (IC50); assay type: biochemical; details: ref [14], unpublished observations
[4] = tested on: human blood clots; experiment: in vitro assay of fibrinolysis (human blood clot lysis); details: 250 μM compound, human whole blood clot, TPA; for fibrinogen (FITC-fibrinogen) release from clots: FIG. 2; for red blood cell release from the blood clots: absorbance 750 nm, FIG. 1
Description: A number of TGase inhibitors show promise for exploitation in therapeutic areas where TGase has been implicated. […] Compounds 1 and 3 were evaluated for stimulation of thrombolysis (human blood clot lysis) and associated release of embedded staphylococci using an in vitro assay of fibrinolysis as shown below.
Fresh human venous blood (1 ml) was collected by venepuncture in 13 mM citrate. After addition of Staphylococcus aureus NCTC 8325 (to 10^6 cfu/ml), tissue plasminogen activator (TPA, to 100 ng/ml) and FITC-labelled fibrinogen (to 10 μg/ml) aqueous solutions of compounds 1 or 3 (to 250 μM) or water (control), the blood was clotted by addition of CaCl2 (to 20 mM) and allowed to cross-link for 1 hr at 37° C. Blood clots were washed three times each in 1 ml sterile phosphate buffered saline (PBS), resuspended in 1 ml PBS containing 10 μg/ml TPA and incubated with shaking at 37° C. Samples of the clot suspending fluid were withdrawn at intervals and measured for red blood cell content (absorbance 750 nm), fibrinolysis (fluorescence) and release of Staphylococcus aureus (by viable counting).

[5] = tested on: fibrin clot; experiment: stabilized fibrin clot formation; assay type: biochemical
[6] = tested on: thrombus; details: ref [11]; cited from earlier work
[7] = release of inhibitor from coated polyurethane catheter; assay type: physicochemical; details: polylactide-glycolide coating, phosphate buffered saline 37° C., over a 336 hour period, FIG. 4
Description: Catheter sections (2 cm, polyurethane Venflon, BD […]) were immersed in a solution of compound 3 (10 mg/ml), dissolved in polylactide-glycolide in dichloromethane (256 mg/ml) and allowed to dry in air. Individual sections were placed in 2 ml of phosphate buffered saline at 37° C. with constant shaking. Release of compound 3 was measured by assaying the phosphate buffered saline over a 336 hour period.

[8] = tested on: femoral artery thrombosis; details: ref [11]; cited from earlier work

Row | Structure (SMILES) | inhibition of bovine epidermal transglutaminase [1] | IC50 [2] | IC50 [3] | fibrinogen (FITC-fibrinogen) release from clots [4] | red blood cell release from the blood clots [4] | inhibition of stabilized fibrin clot formation [5] | thrombolysis in vitro [6] | release of inhibitor from a coated catheter [7] | thrombolysis in a rabbit model of femoral artery thrombosis [8]
1 | O=C(N[C@@H](Cc1ccccc1)C(=O)NCC1CC(Br)=NO1)OCc1ccccc1 (stereo partly drawn) [(S)-1-[(3-Bromo-4,5-dihydro-isoxazol-5-ylmethyl)-carbamoyl]-2-phenyl-ethyl}-carbamic acid benzyl ester] | inhibitor | – | – | – | – | – | – | – | –
2 | C[S+](C)CC(=O)CC[C@H](NC(=O)[C@H](Cc1ccccc1)NC(=O)OCc1ccccc1)C(=O)O [Compound 1, N-benzyloxycarbonyl-L-phenylalanyl-6-dimethylsulfonium-5-oxo-L-norleucine] | – | 30 µM | 50 µM | greatly increased | increased | inhibit stabilized fibrin clot formation | – | – | –
3 | C[S+](C)CC(=O)CC[C@H](NC(=O)[C@@H]1CCCN1C(=O)OCc1ccccc1)C(=O)O [Compound 2, N-Benzyloxycarbonyl-L-prolinyl-6-dimethylsulfonium-5-oxo-L-norleucine] | – | – | 10 µM | – | – | – | – | – | –
4 | CC(=O)CSc1n(C)cc[n+]1C [Compound 3] | – | 50 µM | – | greatly increased | increased | – | enhanced thrombolysis | prolonged release | enhanced thrombolysis
